Assay results reported in patent US20120171286A1, “METHODS AND COMPOSITIONS FOR THE TREATMENT AND DIAGNOSIS OF STATIN-INDUCED MYOPATHY” (Beth Isreal Deaconess Medical Center, priority 2009, published 2012).

Columns and labels:
atrogin-1 mRNA = test: Atrogin-1 mRNA level in myotubes by real-time PCR; assay type: cell-based, mouse; conditions: for atrogin-1 mRNA expression: 30 μM compound; for atrogin-1 expression in myotube culture: 2.5 μM compound alone, mRNA and protein (FIGS. 7C-7D)
atrogin-1 protein = test: Atrogin-1 protein in myotubes by Western blotting; assay type: cell-based, mouse; conditions: for atrogin-1 protein expression: 30 μM compound
Description: Western blotting: Cultured cells after treatment were collected at specific times and solubilized in RIPA lysis buffer (50 mM Tris-HCl, pH 7.4, 150 mM NaCl 1% NP-40, 0.5% sodium deoxycholate, 0.1% SDS (Boston Bioproducts)), protease (Roche) and phosphatase (Sigma) inhibitor cocktail). Proteins were separated by SDS-PAGE, transferred to PVDF membranes and visualized by Western blotting using alkaline phosphatase-based CDP-star chemiluminescent detection according to the manufacturer's protocol (Applied Biosystems). Polyclonal anti-atrogin-1 antibody was used as described in Bdolah et al. (Am. J. Physiol. Reg. Integr. Comp. Physiol. 292:R971-R976, 2007). Anti-actin and dynein antibodies were from Santa Cruz Biotechnology.

[1] = system: myotubes derived from atrogin-1 wildtype mice (+/+); test: Myotube diameter and morphology, myotubes from wildtype mice; assay type: cell-based, mouse; conditions: for fiber diameter in myotube culture: 2.5 μM compound alone
Description: (§1) Myotube fiber size: Size was quantified by measuring a total of 200 tube diameters as described in Sandri et al. (Cell 117:399-412, 2004). Briefly, muscle fiber size from four random fields at 100-fold magnification was measured using IMAGE software (Scion). All data were expressed as the mean +/− S.E.M.

[2] = system: myotubes derived from atrogin-1 knockout mice (−/−); test: Myotube diameter and morphology, myotubes from atrogin-1 knockout mice; assay type: cell-based, mouse
Description: as §1

zebrafish embryos = test: Zebrafish embryo myofiber damage, myosin heavy chain staining; conditions: for fiber diameter in zebrafish embryos: 2.5 μM compound alone
Description: Zebrafish lines and maintenance: Adult zebrafish (Danio rerio) were maintained as described under standard laboratory conditions at 28.5° C. in a 14 hour light/10 hour dark cycle (Westerfield, in Institute of Neuroscience University of Oregon, Eugene, Oreg.). Developmental stages were determined by embryo morphology and hours post fertilization (hpf) (Kimmel et al., Dev. Dyn. 203:253-310, 1995). To examine the effects of lovastatin, the embryos at 20-24 hpf were immersed in the embryonic water (500 μM NaCl, 170 μM KCl, 330 μM CaCl2, and 330 μM MgSO4) at a concentration of 0.005-10 μM lovastatin (mevinolin) (Sigma) including 0.003% 1-phenyl-2-thiourea (Sigma) to inhibit pigmentation in a 24-well plate. After 32 hpf, the embryos were fixed by 4% paraformaldehyde in PBS.
Whole zebrafish antibody staining: Zebrafish embryos were fixed by 4% paraformaldehyde in PBS overnight. After fixation, the embryos were washed by PBS and stored for at least 1 hour at −20° C. in methanol, and permeabilized for 30 minutes at −20° C. in acetone. Embryos were incubated with blocking buffer (1% BSA, 0.1% Tween-20 in PBS), and incubated with diluted primary antibody, anti-slow twitch myosin F59 (1:100; Developmental Studies Hybridoma Bank (DSHB), Department of Biological Sciences, University of Iowa) (Crow et al., Dev. Biol. 118:333-342, 1986; Devoto et al., Development 122:3371-3380, 1996) in blocking solution for overnight at 4° C. Staining was detected by using Alexa Fluor(R) 594 goat anti-mouse IgG (H+L) (1:200; Invitrogen) in blocking solution for 4 hours at room temperature (Birely et al., Dev. Biol. 280:162-176, 2005).

zebrafish atrogin-1 = test: Zebrafish atrogin-1 protein by Western blotting; assay type: in vivo, zebrafish (Danio rerio); conditions: 12 hours; for atrogin-1 expression in zebrafish embryos: 2.5 μM compound alone
Description: Western blotting: Zebrafish embryos were homogenized in SDS sample buffer (30 embryos/30 μL of sample buffer) with microfuge pestle until the lysate became uniform in consistency and there was no longer stringy. The lysate was boiled for 5 minutes and centrifuged supernatant was processed for Western blotting (Hanai et al., J. Cell Biol. 158:529-539, 2002). […] (GAPDH) antibody was from Santa Cruz Biotechnology.

[3] = perillyl alcohol 1.0 mM for 24 hours, wildtype myotubes
[4] = 2.5 μM compound with lovastatin, 24 hours, myotube culture
[5] = lovastatin 24 hours, wildtype cultures
[6] = mevalonate 100 μM + lovastatin 1 μM, 24 hours

`CC(=O)N[C@@H](CSC/C=C(\C)CC/C=C(\C)CCC=C(C)C)C(=O)O` [AFC, N-acetyl-S-farnesyl-L-cysteine] was tested. Which “atrogin-1 mRNA expression” value (atrogin-1 mRNA; 24 hours) did it give?
The value was “no effect”.

What about the atrogin-1 protein expression (atrogin-1 protein; 24 hours) of the same compound?
Its atrogin-1 protein expression is “no effect”.

What about the “myotube diameter / myotube integrity” value ([1]; 30 μM compound, 24 hours, wildtype myotubes) of the same compound?
Its value is “no effect”.

With `CC(=O)N[C@@H](CSC/C=C(\C)CC/C=C(\C)CC/C=C(\C)CCC=C(C)C)C(=O)O` [AGGC, N-acetyl-S-geranylgeranyl-L-cysteine] as the compound, how does the effect on myotubes ([2]; 30 μM AGGC, 24 hours, atrogin-1 knockout myotubes) read?
Its effect on myotubes is “resistant to this reagent”.

And the “atrogin-1 mRNA expression” value (atrogin-1 mRNA; 24 hours)?
The value was “induction”.

What about the atrogin-1 protein expression (atrogin-1 protein; 24 hours) of the same compound?
The atrogin-1 protein expression was “induction”.

What does the source list for `C=C(C)[C@@H]1CC=C(CO)CC1` [Perillyl alcohol, perillyl alcohol]?
muscle fibers in zebrafish embryos (zebrafish embryos; 0.1 to 1.0 mM perillyl alcohol for 12 hours): dramatic thinning of muscle fibers and morphologic damage; atrogin-1 mRNA levels (atrogin-1 mRNA; [3]): induction; atrogin-1 protein levels (atrogin-1 protein; [3]): induction; damage of myotubes [1, 3]: marked damage

How did the “fiber diameter in zebrafish embryos” value (zebrafish embryos; 12 hours) turn out when `CC(C)=CCCC(C)=CCCC(C)=CCO` [farnesol] was run?
The value was “neither 2.5 μM farnesol nor 2.5 μM geranylgeranol alone had any effect”.

What about the “atrogin-1 expression in zebrafish embryos” value (zebrafish atrogin-1) of the same compound?
Its value is “neither 2.5 μM farnesol nor 2.5 μM geranylgeranol alone had any effect”.

What about the “atrogin-1 expression in myotube culture” value (atrogin-1 mRNA; 24 hours) of the same compound?
The value was “neither 2.5 μM farnesol nor 2.5 μM geranylgeranol alone had any effect”.

And the “fiber diameter in myotube culture” value ([1]; 24 hours)?
Its value is “neither 2.5 μM farnesol nor 2.5 μM geranylgeranol alone had any effect”.

How did the “fiber diameter in zebrafish embryos” value (zebrafish embryos; 12 hours) turn out when `CC(C)=CCC/C(C)=C/CC/C(C)=C/CC/C(C)=C/CO` [geranylgeranol] was run?
Its value is “neither 2.5 μM farnesol nor 2.5 μM geranylgeranol alone had any effect”.

And the “fiber damage in zebrafish embryos” value (zebrafish embryos; 2.5 μM compound with lovastatin, 12 hours)?
The value was “reduced the degree”.

What about the “atrogin-1 expression in zebrafish embryos” value (zebrafish atrogin-1) of the same compound?
Its value is “neither 2.5 μM farnesol nor 2.5 μM geranylgeranol alone had any effect”.

And the “degree of atrogin-1 induction in zebrafish embryos” value (zebrafish atrogin-1; 2.5 μM compound with lovastatin)?
The value was “reduced the degree”.

What about the “atrogin-1 expression in myotube culture” value (atrogin-1 mRNA; 24 hours) of the same compound?
The value was “neither 2.5 μM farnesol nor 2.5 μM geranylgeranol alone had any effect”.

And the “degree of atrogin-1 mRNA induction” value (atrogin-1 mRNA; [4])?
The value was “reduced the degree”.

And the “degree of atrogin-1 protein induction” value (atrogin-1 protein; [4])?
The value was “reduced the degree”.

And the “fiber diameter in myotube culture” value ([1]; 24 hours)?
The value was “neither 2.5 μM farnesol nor 2.5 μM geranylgeranol alone had any effect”.

What about the “fiber damage in myotube culture” value ([1]; 2.5 μM compound with lovastatin, 24 hours) of the same compound?
The value was “reduced the degree”.

`CC[C@H](C)C(=O)O[C@H]1C[C@@H](C)C=C2C=C[C@H](C)[C@H](CC[C@@H]3C[C@@H](O)CC(=O)O3)[C@H]21` [lovastatin] was tested. Which “muscle phenotypes (longitudinal muscle fiber staining, myosin heavy chain antibody)” value (zebrafish embryos; lovastatin alone, zebrafish in vivo model) did it give?
The value was “clear dose-dependent muscle phenotypes”.

And the “lovastatin concentration giving class 2 changes (fiber thinning, attenuation of MHC staining)” value (zebrafish embryos; zebrafish embryos, higher concentrations)?
The value was 0.05 to 0.5 µM.

What about the “lovastatin concentration giving class 1 changes (bowing, gap formation, fiber disruption)” value (zebrafish embryos; zebrafish embryos, low concentration) of the same compound?
Its value is 0.025 to 0.05 µM.

And the “lovastatin concentration giving class 3 changes (irregular somite boundries)” value (zebrafish embryos; zebrafish embryos, maximal concentration)?
The value was 1.0 to 5.0 µM.

And the myotube diameter ([2]; 0.5 to 1.0 μM lovastatin for 24 hours, atrogin-1 knockout cultures)?
Its myotube diameter is “resistant to lovastatin-induced reduction in myotube diameter”.

What about the “atrogin-1 mRNA levels” value (atrogin-1 mRNA; [5]) of the same compound?
The value was “dose-dependent increase”.

And the atrogin-1 protein levels (atrogin-1 protein; [5])?
Its atrogin-1 protein levels is “dose-dependent increase”.

And the myotube diameter ([1]; 0.5 to 1.0 μM lovastatin for 24 hours, wildtype myotubes)?
Its myotube diameter is “dose-dependent reduction in myotube diameter”.

Which “development of zebrafish myofiber damage” value (zebrafish embryos; 100 μM mevalonate + 0.05 to 1.0 μM lovastatin, 12 hours) does the source give for `CC(O)(CCO)CC(=O)O` (stereo not shown) [mevalonate] here?
Its value is “completely prevented”.

And the “zebrafish atrogin-1 induction” value (zebrafish atrogin-1; 100 μM mevalonate + 0.05 to 1.0 μM lovastatin)?
The value was “completely prevented”.

What about the “atrogin-1 mRNA induction caused by lovastatin” value (atrogin-1 mRNA; [6]) of the same compound?
The value was “completely prevented”.

What about the “atrogin-1 protein induction caused by lovastatin” value (atrogin-1 protein; [6]) of the same compound?
Its value is “completely prevented”.

What about the “reduction of myotube diameter caused by lovastatin” value [1, 6] of the same compound?
Its value is “completely prevented”.

And the “effect on the muscle cultures when administered alone” value ([1]; mevalonate 100 μM alone, 24 hours)?
Its value is “no effect”.
